Measured values reported in article PMC9030254, “Target Hopping from Protein Kinases to PXR: Identification of Small-Molecule Protein Kinase Inhibitors as Selective Modulators of Pregnane X Receptor from TüKIC Library” (Cells, 2022).

Key:
Assay in all cases: Kinase profiling
Assay type in all cases: biochemical
[1] = target: T1, DDR2 (Homo sapiens, UniProt Q16832)
T1 construct: purchased ProQinase (Freiburg, Germany)
T1 sequence (Q16832 22-855): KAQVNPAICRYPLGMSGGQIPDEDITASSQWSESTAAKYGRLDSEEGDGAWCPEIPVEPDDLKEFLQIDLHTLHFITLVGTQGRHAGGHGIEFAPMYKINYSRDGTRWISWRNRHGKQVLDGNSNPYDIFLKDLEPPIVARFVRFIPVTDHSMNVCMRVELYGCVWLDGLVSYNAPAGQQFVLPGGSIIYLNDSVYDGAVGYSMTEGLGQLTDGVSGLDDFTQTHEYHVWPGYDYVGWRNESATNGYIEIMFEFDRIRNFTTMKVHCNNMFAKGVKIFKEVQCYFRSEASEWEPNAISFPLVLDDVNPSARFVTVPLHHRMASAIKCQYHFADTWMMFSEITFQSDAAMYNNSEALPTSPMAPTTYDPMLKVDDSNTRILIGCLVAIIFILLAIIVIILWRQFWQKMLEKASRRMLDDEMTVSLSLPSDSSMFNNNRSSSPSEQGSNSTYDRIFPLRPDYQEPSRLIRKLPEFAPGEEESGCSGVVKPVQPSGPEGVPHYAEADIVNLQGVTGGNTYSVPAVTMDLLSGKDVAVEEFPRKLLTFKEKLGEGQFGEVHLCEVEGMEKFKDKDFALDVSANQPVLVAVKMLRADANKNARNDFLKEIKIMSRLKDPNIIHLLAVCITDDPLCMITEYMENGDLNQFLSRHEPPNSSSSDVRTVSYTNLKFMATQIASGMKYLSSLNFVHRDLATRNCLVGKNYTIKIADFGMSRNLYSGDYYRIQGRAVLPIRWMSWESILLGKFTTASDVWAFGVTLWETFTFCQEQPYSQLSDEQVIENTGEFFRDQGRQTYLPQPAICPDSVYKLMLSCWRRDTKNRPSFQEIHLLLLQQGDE
Procedure: (§1) The analysis was performed by ProQinase (Freiburg, Germany).

[2] = target: T2, MKK4 (Homo sapiens, UniProt P45985)
T2 construct: purchased ProQinase (Freiburg, Germany)
T2 sequence (P45985 1-399): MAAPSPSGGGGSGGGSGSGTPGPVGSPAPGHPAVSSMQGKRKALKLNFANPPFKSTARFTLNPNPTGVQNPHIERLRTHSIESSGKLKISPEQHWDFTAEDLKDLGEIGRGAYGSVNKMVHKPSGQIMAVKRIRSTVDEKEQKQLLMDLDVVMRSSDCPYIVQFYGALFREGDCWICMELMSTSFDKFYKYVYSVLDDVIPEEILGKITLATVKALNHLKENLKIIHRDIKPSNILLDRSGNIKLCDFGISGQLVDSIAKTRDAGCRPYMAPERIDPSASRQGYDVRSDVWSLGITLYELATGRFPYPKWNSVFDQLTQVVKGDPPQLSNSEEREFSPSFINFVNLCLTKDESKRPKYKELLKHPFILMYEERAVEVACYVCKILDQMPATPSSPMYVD
Procedure: as §1

[3] = target: T3, EPHA4 (Homo sapiens, UniProt P54764)
T3 construct: purchased ProQinase (Freiburg, Germany)
T3 sequence (P54764 20-986): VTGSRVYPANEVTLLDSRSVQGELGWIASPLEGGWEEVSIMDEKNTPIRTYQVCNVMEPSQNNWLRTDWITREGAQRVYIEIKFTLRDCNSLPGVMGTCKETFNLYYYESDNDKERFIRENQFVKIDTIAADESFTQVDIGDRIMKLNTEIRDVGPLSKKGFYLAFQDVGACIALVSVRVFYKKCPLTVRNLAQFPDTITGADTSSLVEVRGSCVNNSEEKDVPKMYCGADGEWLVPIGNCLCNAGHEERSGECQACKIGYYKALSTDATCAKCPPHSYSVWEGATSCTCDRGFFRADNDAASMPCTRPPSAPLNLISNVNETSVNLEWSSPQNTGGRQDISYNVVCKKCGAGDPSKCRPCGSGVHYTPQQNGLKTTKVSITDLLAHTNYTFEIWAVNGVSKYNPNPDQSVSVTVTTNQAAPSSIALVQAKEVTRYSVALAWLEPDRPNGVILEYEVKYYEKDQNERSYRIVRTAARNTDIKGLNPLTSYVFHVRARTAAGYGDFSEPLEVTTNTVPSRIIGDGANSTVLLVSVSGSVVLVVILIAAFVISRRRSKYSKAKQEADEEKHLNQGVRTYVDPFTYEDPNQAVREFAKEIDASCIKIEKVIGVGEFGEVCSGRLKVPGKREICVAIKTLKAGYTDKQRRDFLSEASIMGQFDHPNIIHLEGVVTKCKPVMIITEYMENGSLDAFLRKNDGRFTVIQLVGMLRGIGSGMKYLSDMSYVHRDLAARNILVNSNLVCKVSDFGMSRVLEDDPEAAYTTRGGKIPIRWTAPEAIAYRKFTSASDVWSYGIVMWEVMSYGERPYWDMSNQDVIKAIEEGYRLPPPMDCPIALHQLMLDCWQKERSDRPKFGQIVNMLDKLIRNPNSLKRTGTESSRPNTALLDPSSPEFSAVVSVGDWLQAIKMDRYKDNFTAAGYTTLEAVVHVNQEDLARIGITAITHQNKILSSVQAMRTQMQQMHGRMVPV
Procedure: as §1

[4] = target: T4, TSF1 (Homo sapiens, UniProt O75716)
T4 construct: purchased ProQinase (Freiburg, Germany)
T4 sequence (O75716 whole entry): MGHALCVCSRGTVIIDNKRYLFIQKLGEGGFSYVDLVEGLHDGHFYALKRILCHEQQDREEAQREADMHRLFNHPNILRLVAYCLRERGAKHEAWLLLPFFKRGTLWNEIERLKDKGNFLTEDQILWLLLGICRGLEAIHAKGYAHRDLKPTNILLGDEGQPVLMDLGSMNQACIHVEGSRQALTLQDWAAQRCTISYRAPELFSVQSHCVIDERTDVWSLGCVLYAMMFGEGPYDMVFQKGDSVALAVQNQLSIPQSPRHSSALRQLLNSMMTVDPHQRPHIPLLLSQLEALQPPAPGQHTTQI
Procedure: as §1

[5] = target: T5, LTK (Homo sapiens, UniProt P29376)
T5 construct: purchased ProQinase (Freiburg, Germany)
T5 sequence (P29376 17-864): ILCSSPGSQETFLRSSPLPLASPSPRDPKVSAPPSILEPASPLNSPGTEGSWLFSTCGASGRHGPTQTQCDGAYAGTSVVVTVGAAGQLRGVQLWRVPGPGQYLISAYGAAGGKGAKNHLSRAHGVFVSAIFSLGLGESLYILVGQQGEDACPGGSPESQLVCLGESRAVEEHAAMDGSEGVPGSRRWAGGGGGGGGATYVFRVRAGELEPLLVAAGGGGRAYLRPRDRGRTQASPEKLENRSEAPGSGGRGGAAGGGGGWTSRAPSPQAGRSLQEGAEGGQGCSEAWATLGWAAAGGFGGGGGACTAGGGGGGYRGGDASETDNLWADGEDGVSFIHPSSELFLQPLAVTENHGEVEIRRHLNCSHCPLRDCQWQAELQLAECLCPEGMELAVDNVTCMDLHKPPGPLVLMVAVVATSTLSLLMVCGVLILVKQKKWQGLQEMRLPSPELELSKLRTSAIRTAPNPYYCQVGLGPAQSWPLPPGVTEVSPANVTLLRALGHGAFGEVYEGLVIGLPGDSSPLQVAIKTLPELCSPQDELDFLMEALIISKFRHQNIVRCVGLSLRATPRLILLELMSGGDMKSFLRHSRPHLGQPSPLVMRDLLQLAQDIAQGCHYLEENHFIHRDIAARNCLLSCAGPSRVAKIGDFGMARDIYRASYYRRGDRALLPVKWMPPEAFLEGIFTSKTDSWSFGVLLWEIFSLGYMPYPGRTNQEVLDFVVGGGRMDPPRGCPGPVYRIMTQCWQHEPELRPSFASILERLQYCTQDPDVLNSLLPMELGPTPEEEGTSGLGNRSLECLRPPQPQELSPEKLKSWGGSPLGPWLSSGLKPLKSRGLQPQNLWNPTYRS
Procedure: as §1

[6] = target: T6, MST4 (Homo sapiens, UniProt Q9P289)
T6 construct: purchased ProQinase (Freiburg, Germany)
T6 sequence (Q9P289 whole entry): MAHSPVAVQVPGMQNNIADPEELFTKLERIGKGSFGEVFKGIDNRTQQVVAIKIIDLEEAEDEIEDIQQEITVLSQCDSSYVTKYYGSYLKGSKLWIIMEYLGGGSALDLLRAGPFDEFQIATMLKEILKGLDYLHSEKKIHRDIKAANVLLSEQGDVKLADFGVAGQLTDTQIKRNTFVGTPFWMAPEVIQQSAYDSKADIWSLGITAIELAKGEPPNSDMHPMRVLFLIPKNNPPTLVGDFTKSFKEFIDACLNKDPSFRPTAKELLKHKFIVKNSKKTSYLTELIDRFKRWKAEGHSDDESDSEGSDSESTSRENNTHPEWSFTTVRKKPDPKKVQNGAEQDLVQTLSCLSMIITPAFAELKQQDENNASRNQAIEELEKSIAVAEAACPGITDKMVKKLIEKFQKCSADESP
Procedure: as §1

[7] = target: T7, COT (Homo sapiens, UniProt P41279)
T7 construct: purchased ProQinase (Freiburg, Germany)
T7 sequence (P41279 whole entry): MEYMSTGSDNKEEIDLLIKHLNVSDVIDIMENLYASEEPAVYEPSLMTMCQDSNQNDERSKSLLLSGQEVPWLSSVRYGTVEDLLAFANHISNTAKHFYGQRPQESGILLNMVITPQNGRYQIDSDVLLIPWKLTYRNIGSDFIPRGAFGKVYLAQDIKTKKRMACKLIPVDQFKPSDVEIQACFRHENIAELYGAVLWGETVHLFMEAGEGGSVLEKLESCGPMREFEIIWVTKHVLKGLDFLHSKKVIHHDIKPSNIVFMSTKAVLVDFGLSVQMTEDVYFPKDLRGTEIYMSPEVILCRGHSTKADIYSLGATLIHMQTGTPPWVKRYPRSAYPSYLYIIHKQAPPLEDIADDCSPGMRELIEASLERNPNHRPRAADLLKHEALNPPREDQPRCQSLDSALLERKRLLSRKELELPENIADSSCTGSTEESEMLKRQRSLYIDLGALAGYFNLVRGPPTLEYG
Procedure: as §1

[8] = target: T8, LCK (Homo sapiens, UniProt P06239)
T8 construct: purchased ProQinase (Freiburg, Germany)
T8 sequence (P06239 whole entry): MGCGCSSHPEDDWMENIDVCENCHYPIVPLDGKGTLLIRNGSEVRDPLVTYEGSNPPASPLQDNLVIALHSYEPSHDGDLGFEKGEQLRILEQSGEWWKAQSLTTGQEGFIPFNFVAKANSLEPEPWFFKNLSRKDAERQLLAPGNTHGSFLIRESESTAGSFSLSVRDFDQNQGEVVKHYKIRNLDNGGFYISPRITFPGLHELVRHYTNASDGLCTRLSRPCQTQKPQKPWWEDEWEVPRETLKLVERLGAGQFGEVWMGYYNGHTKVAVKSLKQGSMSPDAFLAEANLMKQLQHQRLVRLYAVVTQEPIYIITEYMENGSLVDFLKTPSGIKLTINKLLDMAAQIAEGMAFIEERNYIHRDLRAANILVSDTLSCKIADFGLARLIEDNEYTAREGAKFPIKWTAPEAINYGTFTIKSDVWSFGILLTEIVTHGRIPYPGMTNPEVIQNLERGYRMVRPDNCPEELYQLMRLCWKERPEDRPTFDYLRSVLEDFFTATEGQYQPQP
Procedure: as §1

[9] = target: T9, MAP3K7/MAP3K7IP1 (Homo sapiens, UniProt O43318)
T9 construct: purchased ProQinase (Freiburg, Germany)
T9 sequence (O43318 1-303 limits assumed): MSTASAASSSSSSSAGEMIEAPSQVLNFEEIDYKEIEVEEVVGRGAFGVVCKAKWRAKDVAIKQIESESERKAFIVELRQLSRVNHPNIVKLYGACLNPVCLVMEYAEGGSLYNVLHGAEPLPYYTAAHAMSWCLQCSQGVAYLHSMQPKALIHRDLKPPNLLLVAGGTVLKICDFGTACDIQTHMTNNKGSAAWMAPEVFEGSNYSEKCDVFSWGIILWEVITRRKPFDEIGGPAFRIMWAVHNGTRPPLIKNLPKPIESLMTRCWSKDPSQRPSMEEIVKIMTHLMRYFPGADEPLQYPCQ
Procedure: as §1

[10] = target: T10, PRKG1 (Homo sapiens, UniProt Q13976)
T10 construct: purchased ProQinase (Freiburg, Germany)
T10 sequence (Q13976 1-671): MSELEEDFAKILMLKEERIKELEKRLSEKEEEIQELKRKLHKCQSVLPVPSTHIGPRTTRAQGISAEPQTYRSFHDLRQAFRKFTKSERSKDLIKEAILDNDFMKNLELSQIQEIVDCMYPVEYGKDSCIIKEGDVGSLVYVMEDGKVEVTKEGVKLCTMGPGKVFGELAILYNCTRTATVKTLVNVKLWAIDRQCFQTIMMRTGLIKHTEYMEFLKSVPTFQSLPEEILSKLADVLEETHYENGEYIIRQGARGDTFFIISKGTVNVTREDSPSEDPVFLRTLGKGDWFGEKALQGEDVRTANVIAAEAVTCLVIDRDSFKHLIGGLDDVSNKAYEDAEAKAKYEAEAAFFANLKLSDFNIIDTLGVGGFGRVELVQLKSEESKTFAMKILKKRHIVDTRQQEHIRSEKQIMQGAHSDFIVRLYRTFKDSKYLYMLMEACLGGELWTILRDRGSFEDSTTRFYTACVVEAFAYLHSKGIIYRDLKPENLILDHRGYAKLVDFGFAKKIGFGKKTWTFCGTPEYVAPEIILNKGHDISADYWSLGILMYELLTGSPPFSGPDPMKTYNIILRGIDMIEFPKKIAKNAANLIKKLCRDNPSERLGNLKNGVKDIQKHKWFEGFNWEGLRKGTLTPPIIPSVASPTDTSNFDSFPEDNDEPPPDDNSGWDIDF
Procedure: as §1

[11] = target: T11, DAPK3 (Homo sapiens, UniProt O43293)
T11 construct: purchased ProQinase (Freiburg, Germany)
T11 sequence (O43293 whole entry): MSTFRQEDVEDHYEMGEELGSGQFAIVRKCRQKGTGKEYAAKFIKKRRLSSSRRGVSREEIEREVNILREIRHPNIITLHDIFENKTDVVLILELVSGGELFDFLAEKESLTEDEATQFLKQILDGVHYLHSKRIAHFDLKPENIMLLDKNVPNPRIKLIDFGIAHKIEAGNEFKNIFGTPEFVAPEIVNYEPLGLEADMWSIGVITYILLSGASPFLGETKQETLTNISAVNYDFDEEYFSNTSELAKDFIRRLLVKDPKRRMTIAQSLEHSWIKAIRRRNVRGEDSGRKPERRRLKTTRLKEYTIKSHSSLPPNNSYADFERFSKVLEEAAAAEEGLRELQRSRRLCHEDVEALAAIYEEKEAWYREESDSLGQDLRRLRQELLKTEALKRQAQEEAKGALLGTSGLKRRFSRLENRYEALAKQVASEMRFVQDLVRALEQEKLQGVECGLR
Procedure: as §1

[12] = target: T12, PKCgamma (Homo sapiens, UniProt P05129)
T12 construct: purchased ProQinase (Freiburg, Germany)
Procedure: as §1

Row | Structure (SMILES) | Residual activity ([1]; 1.0E-05 M) | Residual activity ([1]; 1.0E-06 M) | Residual activity ([2]; 1.0E-05 M) | Residual activity ([2]; 1.0E-06 M) | Residual activity ([3]; 1.0E-05 M) | Residual activity ([3]; 1.0E-06 M) | Residual activity ([4]; 1.0E-05 M) | Residual activity ([4]; 1.0E-06 M) | Residual activity ([5]; 1.0E-05 M) | Residual activity ([5]; 1.0E-06 M) | Residual activity ([6]; 1.0E-05 M) | Residual activity ([6]; 1.0E-06 M) | Residual activity ([7]; 1.0E-05 M) | Residual activity ([7]; 1.0E-06 M) | Residual activity ([8]; 1.0E-05 M) | Residual activity ([8]; 1.0E-06 M) | Residual activity ([9]; 1.0E-05 M) | Residual activity ([9]; 1.0E-06 M) | Residual activity ([10]; 1.0E-05 M) | Residual activity ([10]; 1.0E-06 M) | further results
1 | O=C(Cc1ccccc1)Nc1ccc(F)c(Nc2ccc3c(c2)CCCCC3=O)c1 [Compound 100] | 71 % of control | 94 % of control | 110 % of control | 94 % of control | 88 % of control | 97 % of control | 88 % of control | 107 % of control | 50 % of control | 115 % of control | 82 % of control | 90 % of control | 106 % of control | 93 % of control | 66 % of control | 107 % of control | 91 % of control | 88 % of control | 96 % of control | 120 % of control | Residual activity ([11]; 1.0E-05 M): 119 % of control; Residual activity ([11]; 1.0E-06 M): 105 % of control; Residual activity ([12]; 1.0E-05 M): 78 % of control; Residual activity ([12]; 1.0E-06 M): 77 % of control
2 | O=C(Nc1ccc(F)c(Nc2ccc3c(c2)CCCCC3=O)c1)c1cccc(F)c1 [Compound 109] | 64 % of control | 93 % of control | 111 % of control | 96 % of control | 90 % of control | 86 % of control | 94 % of control | 97 % of control | 77 % of control | 95 % of control | 80 % of control | 92 % of control | 97 % of control | 95 % of control | 84 % of control | 102 % of control | 91 % of control | 91 % of control | 90 % of control | 113 % of control | Residual activity ([11]; 1.0E-05 M): 107 % of control; Residual activity ([11]; 1.0E-06 M): 108 % of control; Residual activity ([12]; 1.0E-05 M): 63 % of control; Residual activity ([12]; 1.0E-06 M): 81 % of control
